From publication PMC12030706, “Novel ^177Lu-Labeled [Thz^14]Bombesin(6–14) Derivatives with Low Pancreas Accumulation for Targeting Gastrin-Releasing Peptide Receptor-Expressing Cancer” (Pharmaceuticals, 2025)

What was measured:
[1] = test system: PC-3 tumor-bearing NRG mouse; test: Longitudinal SPECT/CT imaging in PC-3 tumor-bearing mice; assay type: in vivo, mice (NRG); conditions: SPECT/CT images
Procedure: The PC-3 tumor-bearing mice were sedated (2.5% isoflurane in O2) and injected with ^177Lu-labeled ligands (15–32 MBq) through a lateral caudal tail vein. […] At each time point, a 5 min CT scan was obtained using 615 μA and 60 kV parameters for localization and attenuation, followed by 2 × 30 min static SPECT scans acquired in list mode with an energy window centered around 208 keV. The MILabs U-SPECT II reconstruction software (version 8.00) was used to reconstruct data, and the images were decay corrected to the time of injection with PMOD v 3.402 (PMOD Technologies GmbH, Fallanden, Switzerland).

[2] = LogD7.4 measurement, shake flask method; assay type: physicochemical; conditions: n-octanol/DPBS pH 7.4, n = 3
Procedure: The logD7.4 values of all the ^177Lu-labeled GRPR-targeted ligands were measured using the shake flask method as previously reported. An aliquot (~2 MBq) of the radiolabeled product was added to a mixture of n-octanol (3 mL) and DPBS (3 mL, pH 7.4), followed by 1 min vortexing and 15 min centrifugation at 5000 rpm. Samples of the n-octanol (1 mL) and buffer (1 mL) layers were collected, and the activity was counted using a gamma counter. The logD7.4 values were calculated using the following equation: logD7.4=log10[countsn−octanolphase/countsbutterphase]

PC-3 tumor-bearing mice = test: Ex vivo biodistribution in PC-3 tumor-bearing mice
Procedure: (§1) SPECT/CT imaging experiments were performed using an MILabs (Houten, The Netherlands) U-SPECT-II/CT scanner with a custom-made ultra-high-sensitivity big mouse collimator (2 mm pinhole size) following previously reported procedures. […] Male NOD.Cg-Rag1^tm1Mom Il2rg^tm1Wjl/SzJ (NRG) mice were used in these experiments because of their immunodeficient characteristics and excellent radiation tolerance. Mice were anaesthetized and subcutaneously implanted with 5 × 10^6 PC-3 prostate cancer cells (100 µL; 1:1 PBS/Matrigel) behind the left shoulder. SPECT/CT imaging and biodistribution studies were performed once the tumors reached a diameter of 5–8 mm, typically after approximately 4 weeks of growth.
(§2) For ex vivo biodistribution studies, the mice were injected with ~2–6 MBq of the radioligand. […] Blocking study was conducted at 1 h post-injection via co-injection of the radioligand with 100 μg of [D-Phe^6,Leu-NHEt^13,des-Met^14]Bombesin(6–14). Organs/tissues of interested were collected, weighed, and measured using an automatic gamma counter.

[3] = Ex vivo biodistribution in PC-3 tumor-bearing mice; conditions: mouse; for tissue uptake at 4 h: 4 h post-injection; for tissue uptake at 24 h: 24 h post-injection; for tissue uptake at 72 h: 72 h post-injection; for tissue uptake at 120 h: 120 h post-injection
Procedure: as §1, §2

[4] = 1 h post-injection, 100 µg [D-Phe6,Leu-NHEt13,des-Met14]Bombesin(6–14)
[5] = PC-3 tumor, Uptake in PC-3 tumor
[6] = adrenal glands, Uptake in adrenal glands
[7] = large intestine, Uptake in large intestine
[8] = small intestine, Uptake in small intestine

CC(C)C[C@@H](CN1CSC[C@H]1C(N)=O)NC(=O)[C@H](Cc1cnc[nH]1)NC(=O)CN(C)C(=O)[C@@H](NC(=O)[C@H](C)NC(=O)[C@H](Cc1c[nH]c2ccccc12)NC(=O)[C@H](CCC(N)=O)NC(=O)[C@@H](Cc1ccccc1)NC(=O)CN1CCC(NC(=O)CN2CCN(CC(=O)O)CCN(CC(=O)O)CCN(CC(=O)O)CC2)CC1)C(C)C [[^177Lu]Lu-TacsBOMB5, metal not drawn]
excretion pathway [1]: excreted mainly via the renal pathway
logD [2]: -2.53 ± 0.2
reduction of average pancreas uptake by co-injection of blocker (PC-3 tumor-bearing mice; [4]): 45%
reduction of average tumor uptake by co-injection of blocker (PC-3 tumor-bearing mice; [4]): 71%
uptake in PC-3 tumor xenografts cleared within 24 h (PC-3 tumor-bearing mice; relative to 1 h uptake): Approximately 80%
tissue uptake at 1 h ([3]; PC-3 tumor, 100 ug, Uptake in PC-3 tumor, 1 h blocked (co-injected with 100 µg [D-Phe6,Leu-NHEt13,des-Met14]Bombesin(6-14))): 2.53 ± 0.34 %ID/g
tissue uptake at 1 h ([3]; PC-3 tumor, Uptake in PC-3 tumor, 1 h post-injection): 8.71 ± 0.53 %ID/g
tissue uptake at 4 h [3, 5]: 4.8 ± 0.32 %ID/g
tissue uptake at 24 h [3, 5]: 1.77 ± 0.27 %ID/g
tissue uptake at 72 h [3, 5]: 1.09 ± 0.19 %ID/g
tissue uptake at 120 h [3, 5]: < 1 %ID/g
tissue uptake at 1 h ([3]; adrenal glands, 100 ug, Uptake in adrenal glands, 1 h blocked (co-injected with 100 µg [D-Phe6,Leu-NHEt13,des-Met14]Bombesin(6-14))): 0.17 ± 0.04 %ID/g
tissue uptake at 1 h ([3]; adrenal glands, Uptake in adrenal glands, 1 h post-injection): 0.61 ± 0.28 %ID/g
tissue uptake at 4 h [3, 6]: 0.29 ± 0.07 %ID/g
tissue uptake at 24 h [3, 6]: 0.17 ± 0.02 %ID/g
tissue uptake at 72 h [3, 6]: 0.18 ± 0.12 %ID/g
tissue uptake at 120 h [3, 6]: 0.12 ± 0.08 %ID/g
tissue uptake at 1 h ([3]; blood, 100 ug, Uptake in blood, 1 h blocked (co-injected with 100 µg [D-Phe6,Leu-NHEt13,des-Met14]Bombesin(6-14))): 0.45 ± 0.11 %ID/g
tissue uptake at 1 h ([3]; blood, Uptake in blood, 1 h post-injection): 1.77 ± 0.14 %ID/g
tissue uptake at 24 h ([3]; blood, Uptake in blood): 0.21 ± 0.02 %ID/g
tissue uptake at 72 h ([3]; blood, Uptake in blood): 0.07 ± 0.01 %ID/g
tissue uptake at 1 h ([3]; bone, 100 ug, Uptake in bone, 1 h blocked (co-injected with 100 µg [D-Phe6,Leu-NHEt13,des-Met14]Bombesin(6-14))): 0.06 ± 0.03 %ID/g
tissue uptake at 1 h ([3]; bone, Uptake in bone, 1 h post-injection): 0.12 ± 0.02 %ID/g
tissue uptake at 4 h ([3]; bone, Uptake in bone): 0.09 ± 0.03 %ID/g
tissue uptake at 24 h ([3]; bone, Uptake in bone): 0.07 ± 0.02 %ID/g
tissue uptake at 72 h ([3]; bone, Uptake in bone): 0.07 ± 0.01 %ID/g
tissue uptake at 120 h ([3]; bone, Uptake in bone): 0.07 ± 0.01 %ID/g
tissue uptake at 1 h ([3]; brain, 100 ug, Uptake in brain, 1 h blocked (co-injected with 100 µg [D-Phe6,Leu-NHEt13,des-Met14]Bombesin(6-14))): 0.02 %ID/g
tissue uptake at 1 h ([3]; brain, Uptake in brain, 1 h post-injection): 0.04 %ID/g
tissue uptake at 4 h ([3]; brain, Uptake in brain): 0.02 %ID/g
tissue uptake at 1 h ([3]; fat, 100 ug, Uptake in fat, 1 h blocked (co-injected with 100 µg [D-Phe6,Leu-NHEt13,des-Met14]Bombesin(6-14))): 0.06 ± 0.01 %ID/g
tissue uptake at 1 h ([3]; fat, Uptake in fat, 1 h post-injection): 0.15 ± 0.04 %ID/g
tissue uptake at 4 h ([3]; fat, Uptake in fat): 0.06 ± 0.01 %ID/g
tissue uptake at 72 h ([3]; fat, Uptake in fat): 0.02 ± 0.01 %ID/g
tissue uptake at 120 h ([3]; fat, Uptake in fat): 0.01 ± 0.01 %ID/g
tissue uptake at 1 h ([3]; heart, 100 ug, Uptake in heart, 1 h blocked (co-injected with 100 µg [D-Phe6,Leu-NHEt13,des-Met14]Bombesin(6-14))): 0.15 ± 0.02 %ID/g
tissue uptake at 1 h ([3]; heart, Uptake in heart, 1 h post-injection): 0.45 ± 0.06 %ID/g
tissue uptake at 4 h ([3]; heart, Uptake in heart): 0.21 ± 0.03 %ID/g
tissue uptake at 24 h ([3]; heart, Uptake in heart): 0.09 ± 0.01 %ID/g
tissue uptake at 72 h ([3]; heart, Uptake in heart): 0.05 ± 0.01 %ID/g
tissue uptake at 120 h ([3]; heart, Uptake in heart): 0.04 ± 0.01 %ID/g
tissue uptake at 4 h ([3]; in vivo, Uptake in blood): 0.85 ± 0.03 %ID/g
tissue uptake at 24 h ([3]; in vivo, Uptake in pancreas): 0.08 ± 0.02 %ID/g
tissue uptake at 72 h ([3]; in vivo, Uptake in testes): 0.08 ± 0.04 %ID/g
tissue uptake at 120 h ([3]; in vivo, Uptake in testes): 0.08 ± 0.02 %ID/g
tissue uptake at 1 h ([3]; kidneys, 100 ug, Uptake in kidneys, 1 h blocked (co-injected with 100 µg [D-Phe6,Leu-NHEt13,des-Met14]Bombesin(6-14))): 2.78 ± 0.51 %ID/g
tissue uptake at 1 h ([3]; kidneys, Uptake in kidneys, 1 h post-injection): 3.47 ± 0.29 %ID/g
tissue uptake at 4 h ([3]; kidneys, Uptake in kidneys): 3.1 ± 0.35 %ID/g
tissue uptake at 24 h ([3]; kidneys, Uptake in kidneys): 1.38 ± 0.18 %ID/g
tissue uptake at 72 h ([3]; kidneys, Uptake in kidneys): 0.6 ± 0.07 %ID/g
tissue uptake at 120 h ([3]; kidneys, Uptake in kidneys): 0.39 ± 0.11 %ID/g
tissue uptake at 1 h ([3]; large intestine, 100 ug, Uptake in large intestine, 1 h blocked (co-injected with 100 µg [D-Phe6,Leu-NHEt13,des-Met14]Bombesin(6-14))): 0.13 ± 0.04 %ID/g
tissue uptake at 1 h ([3]; large intestine, Uptake in large intestine, 1 h post-injection): 0.31 ± 0.09 %ID/g
tissue uptake at 4 h [3, 7]: 0.42 ± 0.09 %ID/g
tissue uptake at 24 h [3, 7]: 0.42 ± 0.25 %ID/g
tissue uptake at 1 h ([3]; liver, 100 ug, Uptake in liver, 1 h blocked (co-injected with 100 µg [D-Phe6,Leu-NHEt13,des-Met14]Bombesin(6-14))): 0.29 ± 0.05 %ID/g
tissue uptake at 1 h ([3]; liver, Uptake in liver, 1 h post-injection): 0.67 ± 0.07 %ID/g
tissue uptake at 4 h ([3]; liver, Uptake in liver): 0.54 ± 0.04 %ID/g
tissue uptake at 24 h ([3]; liver, Uptake in liver): 0.29 ± 0.02 %ID/g
tissue uptake at 120 h ([3]; liver, Uptake in liver): 0.16 ± 0.07 %ID/g
tissue uptake at 1 h ([3]; lungs, 100 ug, Uptake in lungs, 1 h blocked (co-injected with 100 µg [D-Phe6,Leu-NHEt13,des-Met14]Bombesin(6-14))): 0.37 ± 0.04 %ID/g
tissue uptake at 1 h ([3]; lungs, Uptake in lungs, 1 h post-injection): 2.2 ± 0.93 %ID/g
tissue uptake at 4 h ([3]; lungs, Uptake in lungs): 1.45 ± 0.34 %ID/g
tissue uptake at 24 h ([3]; lungs, Uptake in lungs): 0.25 ± 0.03 %ID/g
tissue uptake at 72 h ([3]; lungs, Uptake in lungs): 0.13 ± 0.01 %ID/g
tissue uptake at 120 h ([3]; lungs, Uptake in lungs): 0.07 ± 0.03 %ID/g
tissue uptake at 1 h ([3]; muscle, 100 ug, Uptake in muscle, 1 h blocked (co-injected with 100 µg [D-Phe6,Leu-NHEt13,des-Met14]Bombesin(6-14))): 0.13 ± 0.03 %ID/g
tissue uptake at 1 h ([3]; muscle, Uptake in muscle, 1 h post-injection): 0.22 ± 0.01 %ID/g
tissue uptake at 72 h ([3]; muscle, Uptake in muscle): 0.02 %ID/g
tissue uptake at 120 h ([3]; muscle, Uptake in muscle): 0.01 %ID/g
tissue uptake at 1 h ([3]; pancreas, 100 ug, Uptake in pancreas, 1 h blocked (co-injected with 100 µg [D-Phe6,Leu-NHEt13,des-Met14]Bombesin(6-14))): 0.59 ± 0.11 %ID/g
tissue uptake at 1 h ([3]; pancreas, Uptake in pancreas, 1 h post-injection): 1.08 ± 0.22 %ID/g
tissue uptake at 4 h ([3]; pancreas, Uptake in pancreas): 0.21 ± 0.01 %ID/g
tissue uptake at 72 h ([3]; pancreas, Uptake in pancreas): 0.04 ± 0.01 %ID/g
tissue uptake at 120 h ([3]; pancreas, Uptake in pancreas): 0.02 %ID/g
tissue uptake at 1 h ([3]; small intestine, 100 ug, Uptake in small intestine, 1 h blocked (co-injected with 100 µg [D-Phe6,Leu-NHEt13,des-Met14]Bombesin(6-14))): 0.26 ± 0.04 %ID/g
tissue uptake at 1 h ([3]; small intestine, Uptake in small intestine, 1 h post-injection): 0.6 ± 0.16 %ID/g
tissue uptake at 4 h [3, 8]: 0.19 ± 0.05 %ID/g
tissue uptake at 24 h [3, 8]: 0.09 ± 0.03 %ID/g
tissue uptake at 120 h [3, 8]: 0.02 %ID/g
tissue uptake at 1 h ([3]; spleen, 100 ug, Uptake in spleen, 1 h blocked (co-injected with 100 µg [D-Phe6,Leu-NHEt13,des-Met14]Bombesin(6-14))): 0.15 ± 0.02 %ID/g
tissue uptake at 1 h ([3]; spleen, Uptake in spleen, 1 h post-injection): 0.31 ± 0.03 %ID/g
tissue uptake at 24 h ([3]; spleen, Uptake in spleen): 0.16 ± 0.03 %ID/g
tissue uptake at 72 h ([3]; spleen, Uptake in spleen): 0.18 ± 0.05 %ID/g
tissue uptake at 120 h ([3]; spleen, Uptake in spleen): 0.14 ± 0.06 %ID/g
tissue uptake at 1 h ([3]; stomach, 100 ug, Uptake in stomach, 1 h blocked (co-injected with 100 µg [D-Phe6,Leu-NHEt13,des-Met14]Bombesin(6-14))): 0.06 ± 0.01 %ID/g
tissue uptake at 24 h ([3]; stomach, Uptake in stomach): 0.27 ± 0.16 %ID/g
tissue uptake at 120 h ([3]; stomach, Uptake in stomach): 0.02 ± 0.02 %ID/g
tissue uptake at 1 h ([3]; testes, 100 ug, Uptake in testes, 1 h blocked (co-injected with 100 µg [D-Phe6,Leu-NHEt13,des-Met14]Bombesin(6-14))): 0.18 ± 0.02 %ID/g
tissue uptake at 1 h ([3]; testes, Uptake in testes, 1 h post-injection): 0.45 ± 0.11 %ID/g
tissue uptake at 24 h ([3]; testes, Uptake in testes): 0.12 ± 0.02 %ID/g
